This passage reports viability results from article PMC12040169 (PLOS Biology, 2025).

The series in a line: in vitro. Particulars: human, hela cells, % viability.
The viability is a read-out of living cells in per cent, often relative to untreated cells. With `CS(=O)(=O)N1CCc2cc(-c3csc(C4CC4)n3)ccc21` [CBK306347], the viability at 28.5 h, 10 µM was 70.5%.
Consider `COc1ccnc(N2CCN(C(=O)CCc3ccsc3)CC2)n1` [CBK306350], for which the viability at 28.5 h, 10 µM turned out to be 90.5%.
The same measure for `COc1ccc(CC2CCCN2C(=O)Cn2cncn2)cc1` (stereo not shown) [CBK306351]: 97.3%; for `CC(C)c1noc(NCc2nnc3n2CCCCC3)n1` [CBK306352]: 113%.
On to `Cc1nc(COc2ccc(Cl)cc2)sc1C(=O)N1CCC1` [CBK306353], for which the viability at 28.5 h, 10 µM amounted to 88.5%.
For the compound `CC(=O)Nc1cccc(-n2cnnc2SCC2CCOCC2)c1` [CBK306354], the viability at 28.5 h, 10 µM was 92%.
The same measure for `CC1CN(C)c2ccccc2CN1C(=O)Cc1cn2ccsc2n1` (stereo not shown) [CBK306355]: 89.1%.
With `Cc1noc(C(C)C)c1C(=O)NC1CCCN(c2ccn(C)n2)C1=O` (stereo not shown) [CBK306356], the viability at 28.5 h, 10 µM was 75.8%.
Regarding `CC(NC(=O)N1CCC1)c1cccc(S(N)(=O)=O)c1` (stereo not shown) [CBK306357], the viability at 28.5 h, 10 µM is 91.5%.
`CC(CCO)CNS(=O)(=O)c1ccc(N2CCCC2=O)cc1` (stereo not shown) [CBK306358]: the viability at 28.5 h, 10 µM is 90.5%.
The figure for `CCCc1cc(O)nc(SCCCCn2ccnc2C)n1` [CBK306359] is 107%; for `O=C(O)C1CC1C(=O)N1CC2(CCCC2)c2c(F)cccc21` (stereo not shown) [CBK306360] it is 112%; for `COc1ccc(C(C)NC2CCN(c3nc(C)cs3)CC2)cc1F` (stereo not shown) [CBK306362] it is 94.7%.
With `CN1CCN(CC(=O)Nc2cc(C(F)(F)F)ccc2Cl)C(C)(C)C1` [CBK306363], the viability at 28.5 h, 10 µM came to 85.8%.
Consider `O=C(Nc1cccc(F)c1)N1CCC(Cc2cccnc2)CC1` [CBK306369], for which the viability at 28.5 h, 10 µM was found to be 87.3%.
On to `Cc1nn(C)c(C)c1OCC(=O)Nc1nc2c(cc1C#N)CCC2` [CBK306371], for which the viability at 28.5 h, 10 µM was found to be 81%.
The same measure for `CC(C)NC(=O)CCNc1ncc(C(N)=O)cc1Cl` [CBK306373]: 92.9%; for `Cc1nn(C)c(C)c1OCC(=O)Nc1sc2c(c1C#N)CCC2` [CBK306374]: 79.4%; for `Cc1cc(CC(=O)N2CCN(CCNC(=O)C3CCCC3)CC2)no1` [CBK306376]: 113%.
The same measure for `COCCNC(=O)CN(C)c1nc2ccccc2[nH]1` [CBK306378]: 84.6%.
As for `c1cn2cnnc2c(N2CCOC(c3ccsc3)C2)n1` (stereo not shown) [CBK306379], the viability at 28.5 h, 10 µM was found to be 88.8%.
Turning to `c1csc(C2CN(c3nccn4cnnc34)CCO2)c1` (stereo not shown) [CBK306380], the viability at 28.5 h, 10 µM stood at 85%.
Turning to `Cc1ncc2c(n1)CCCC2NC(=O)c1ccccc1Cn1cncn1` (stereo not shown) [CBK306381], the viability at 28.5 h, 10 µM came to 100%.
Regarding `O=S(=O)(Cc1cc(Cl)ccc1F)N1CCN(CCO)CC1` [CBK306385], the viability at 28.5 h, 10 µM was 80%.
Turning to `CCc1nc2ccccc2n1C1CCN(C(=O)Cc2cccnc2)CC1` [CBK306389], the viability at 28.5 h, 10 µM was 100%.
The figure for `Cn1nc(CN(Cc2ccccc2C(F)(F)F)C2CC2)[nH]c1=O` [CBK306391] is 98.2%; for `O=C(NCc1ccsc1)NCC1CCN(c2ccncc2)CC1` [CBK306394] it is 91.3%.
The same measure for `CC(=O)Nc1cccc(C(=O)OCC(=O)N2CCCC2)c1` [CBK306395]: 91.6%; for `COCC1CCCN(S(=O)(=O)c2cnc3ccsc3c2)C1` (stereo not shown) [CBK306397]: 66.6%; for `FC(F)CN1CCN(Cc2ccc(Oc3cnccn3)cc2)CC1` [CBK306399]: 101%.
The figure for `CC(=O)Nc1c[nH]nc1C1CCCN(c2cccc(F)c2C#N)C1` (stereo not shown) [CBK306401] is 97.2%.
Regarding `CC(C)c1nc(NCc2nnc(C(C)C)n2C)nc(N(C)C)n1` [CBK306402], the viability at 28.5 h, 10 µM came out at 104%.
For the compound `Cc1noc(CN2CCNC(=O)C2c2ccccc2C(F)(F)F)n1` (stereo not shown) [CBK306405], the viability at 28.5 h, 10 µM was determined as 98.2%.
For the compound `CCNC(=O)Nc1c[nH]nc1C1CCCN(c2cccc(F)c2C#N)C1` (stereo not shown) [CBK306406], the viability at 28.5 h, 10 µM was 86.5%.
On to `Cn1cc(CN2CCNC(=O)C2c2ccccc2C(F)(F)F)cn1` (stereo not shown) [CBK306407], for which the viability at 28.5 h, 10 µM came to 90.4%.
In the case of `Cc1nc(-c2cc3c(s2)CCN(Cc2ccc(CO)o2)C3)cs1` [CBK306411], the viability at 28.5 h, 10 µM was determined as 90%.
`N#Cc1ccc(NCC(=O)Nc2ncccc2O)cc1` [CBK306413]: the viability at 28.5 h, 10 µM stood at 88.7%.
The figure for `Cc1cc(S(=O)(=O)Nc2ccccc2-c2nncn2C)c(C)o1` [CBK306414] is 85.9%; for `Cn1ccnc1CN1CCNC(=O)C1c1ccccc1C(F)(F)F` (stereo not shown) [CBK306415] it is 85.1%.
The figure for `c1cnc(Oc2ccc(CN3CCCC(c4cn[nH]c4)C3)cc2)cn1` (stereo not shown) [CBK306416] is 86.6%; for `Cc1ccsc1C(C)NC1CCCN(c2ccn(C)n2)C1=O` (stereo not shown) [CBK306419] it is 106%.
In the case of `Cc1cc(C(=O)N2CCc3c(sc4ncnc(N)c34)C2)sc1C` [CBK306420], the viability at 28.5 h, 10 µM is 99.4%.
The figure for `Cc1cc(C)n(CC(=O)N2CCNC(=O)C2c2ccccc2Cl)n1` (stereo not shown) [CBK306421] is 92.6%; for `Cn1nccc1CN1CCNC(=O)C1c1ccccc1C(F)(F)F` (stereo not shown) [CBK306422] it is 86.9%.
The same measure for `CC1CN(c2cc(CNc3nc4ccccn4c3C#N)ccn2)CCO1` (stereo not shown) [CBK306423]: 78.7%; for `CC(=O)Nc1ccc(CNc2nnc(C3CCCCC3)o2)cc1` [CBK306427]: 105%.
On to `Cc1noc(C)c1CC(=O)Nc1nc2c(cc1C#N)CCCC2` [CBK306429], for which the viability at 28.5 h, 10 µM was 97.1%.
The figure for `N#Cc1c[nH]c(C(=O)NC2CCN(C(=O)c3ccccc3)CC2)c1` [CBK306433] is 91%; for `CCNS(=O)(=O)c1ccc2c(c1)N(Cc1n[nH]c(CC)n1)CC2` [CBK306434] it is 86.9%; for `Cn1cc(CC(=O)Nc2nc3c(cc2C#N)CCCC3)cn1` [CBK306436] it is 90.7%.
The same measure for `O=c1scnn1Cc1nc(-c2ccsc2)no1` [CBK306438]: 83.4%; for `Cc1c(CNc2nnc(C(C)(C)C)o2)cnn1C` [CBK306439]: 83.5%.
Regarding `CC(C)c1noc(NCCc2cn3c(n2)CCCC3)n1` [CBK306444], the viability at 28.5 h, 10 µM turned out to be 93.5%.
As to `Cc1c(C(C)NCC(C)(C)N(C)C)cnn1-c1ccc(C#N)cc1` (stereo not shown) [CBK306447], the viability at 28.5 h, 10 µM came to 87.7%.
Consider `CNC(=O)CC1CCN(c2cc(C#N)ccc2C(F)(F)F)CC1` [CBK306450], for which the viability at 28.5 h, 10 µM came out at 112%.
The same measure for `CC1CN(c2cc(CNc3ncccc3Cl)ccn2)CCO1` (stereo not shown) [CBK306456]: 88.3%.
Regarding `CCOC(=O)c1cnn(C2CCCN(c3ccc(C#N)nc3)C2)c1` (stereo not shown) [CBK306458], the viability at 28.5 h, 10 µM is 113%.
Take `CCc1ccc2c(c1)C(CCNC(=O)c1sccc1C)C(=O)N2` (stereo not shown) [CBK306459]: the viability at 28.5 h, 10 µM amounted to 88.5%.
In the case of `O=C(NCCc1cccnc1)Nc1ccc(CN2CCCC2=O)cc1` [CBK306461], the viability at 28.5 h, 10 µM worked out at 80%.
The figure for `Cc1c(C(C)NCC(O)c2ccco2)cnn1-c1ccc(C#N)cc1` (stereo not shown) [CBK306462] is 88.4%; for `O=C(Cn1cnnn1)NCc1cccnc1OCC(F)(F)F` [CBK306467] it is 96.1%.
